Test results taken from patent publication US20250230138A1, “COMPOUNDS HAVING A T-STRUCTURE FORMED BY AT LEAST FOUR CYCLES FOR USE IN THE TREATMENT OF CANCER AND OTHER INDICATIONS” (TheRas, Inc., priority 2022, published 2025).
Like-named read-outs stand apart in the source and are kept apart here.

Experiments:
[1] = biological target: Cys242 in human PIK3CA (157-299) (Homo sapiens (Human), UniProt P42336); test: Covalent modification assay using MALDI-TOF MS; assay type: biochemical; conditions: 4 h reaction time point
Sequence of Cys242 in human PIK3CA (157-299) (P42336 157-299): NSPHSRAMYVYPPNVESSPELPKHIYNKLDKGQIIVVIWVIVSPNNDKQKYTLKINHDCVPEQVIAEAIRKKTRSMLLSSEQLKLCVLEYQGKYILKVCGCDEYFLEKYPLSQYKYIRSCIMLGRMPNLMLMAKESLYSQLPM
Method in brief: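 PIK3CA (157-299), 3.33 or 1 μM in 20 mM HEPES, 150 mM NaCl, 2 mM MgCl2, pH 7.3, was incubated with compound at room temperature in the dark for 15 min, 30 min, 2 h or 4 h. Linear MALDI-TOF read-out; % modification = adduct peak height over summed heights of all protein species.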

pAKT in BT474 cells = test: Cell-based pAKT HTRF assay in BT474 cells; conditions: BT474 cells, 4 hr incubation, read-out: pAKT inhibition IC50 in BT474 cells
Method in brief: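 Treatment lasts 4 hr in DMEM/10% FBS at 0.25% DMSO over nine 3-fold dilutions from 3 μM. The lysate is then probed by HTRF.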

[2] = 3.33 μM protein target, 1:7.5 protein to compound ratio (compounds 1-852)
[3] = 1 μM protein target, 1:5 protein to compound ratio (compounds 853-1279)

Row | SMILES | IC50 (pAKT in BT474 cells; Compounds 10-999) [nM] | IC50 (pAKT in BT474 cells; Compounds 1000-1279) [nM] | IC50 (pAKT in BT474 cells; Homo sapiens, BT-474, Compounds 10-999) [nM] | % of modification [1, 2] | % of modification [1, 3]
1 | C=CC(=O)N1CCc2nc(-c3nc(-c4ccc5c(c4)CCN(C)C5)c4ccsc4c3-c3c(F)cc(F)cc3OCC(F)F)sc2C1 [Compound 470] | 100 to 1000 | – | – | A (percent of modification of PIK3CA protein ≥75%) | –
2 | C=CC(=O)N1CCn2nc(-c3nc(-c4ccc5c(c4)CN(C)CC54CC4)c4ccsc4c3-c3c(F)cc(F)cc3OCCOC)cc2C1C (stereo not drawn) [Compound 1113] | – | < 100 | – | – | A (percent of modification of PIK3CA protein ≥75%)
3 | C=CC(=O)N1CCc2ncc(-c3nc(-c4cnc5c(c4)CN(C)CC5(F)F)c4ccsc4c3-c3c(F)cc(F)cc3OCCOC)cc2C1 [Compound 1279] | – | < 100 | – | – | A (percent of modification of PIK3CA protein ≥75%)
4 | C=CC(=O)N1CCc2nc(-c3nc(-c4ccc5c(c4)CNC5=O)c4ccsc4c3-c3c(F)cc(F)cc3OC(C)C)sc2C1 [Compound 311, 5-[7-(2,4-difluoro-6-isopropoxy-phenyl)-6-(5-prop-2-enoyl-6,7-dihydro-4H-thiazolo[5,4-c]pyridin-2-yl)thieno[3,2-c]pyridin-4-yl]isoindolin-1-one] | – | – | < 100 | A (percent of modification of PIK3CA protein ≥75%) | –
5 | C=CC(=O)N1CCn2nc(-c3nc(-c4ccc(C5(C(=O)NC)CC5)cc4)c4ccsc4c3-c3c(F)cc(F)cc3OCCO)cc2[C@H]1C [Compound 1135] | – | < 100 | – | – | A (percent of modification of PIK3CA protein ≥75%)
6 | C=CC(=O)N1Cc2cc(-c3nc(-c4ccc5c(c4)CCN(C)C5)c4ccsc4c3-c3c(F)cc(F)cc3OC(C)C)nn2C(C)C1 (stereo not drawn) [Compound 555] | 100 to 1000 | – | – | D (percent of modification <25%) | –
7 | C=CC(=O)N1CCn2nc(-c3nc(-c4ccc(OCCN5CCC5)cc4)c4ccsc4c3-c3c(F)cc(F)cc3OCCOC)cc2C1C (stereo not drawn) [Compound 1073] | – | < 100 | – | – | A (percent of modification of PIK3CA protein ≥75%)
8 | C=CC(=O)N1CC(n2cc(-c3nc(-c4cnn(C)c(=O)c4)c4ccsc4c3-c3ccc(F)cc3OC)cn2)C1 [Compound 183] | 100 to 1000 | – | – | A (percent of modification of PIK3CA protein ≥75%) | –
9 | C=CC(=O)N1CCc2nc(-c3nc(-c4ccc5c(c4)CCNC5)c4ccsc4c3-c3c(F)cc(Cl)cc3OCCOC)sc2C1 [Compound 465] | 100 to 1000 | – | – | A (percent of modification of PIK3CA protein ≥75%) | –
10 | C=C(F)C(=O)N1Cc2cc(-c3nc(-c4ccc5c(c4)CCN(C)C5)c4ccsc4c3-c3c(F)cc(F)cc3OC(C)C)nn2CC1C (stereo not drawn) [Compound 473] | 100 to 1000 | – | – | D (percent of modification <25%) | –
11 | C=CC(=O)N1CCc2ccc(-c3nc(-c4cnc(N5CCN(C)CC5)nc4)c4ccsc4c3-c3c(F)cc(F)cc3OCCOC)cc2C1 [Compound 1106] | – | 100 to 1000 | – | – | A (percent of modification of PIK3CA protein ≥75%)
12 | C=CC(=O)N1CCn2nc(-c3nc(-c4ccc5c(cnn5C)c4)c4ccsc4c3-c3c(F)cc(F)cc3OCC(C)(C)O)cc2C1C (stereo not drawn) [Compound 1125] | – | 100 to 1000 | – | – | A (percent of modification of PIK3CA protein ≥75%)
13 | C=CC(=O)N1Cc2cc(-c3nc(-c4ccc5c(c4)CCN(C)C5)c4ccsc4c3-c3c(F)cc(F)cc3OCCO)nn2[C@@H](C)C1 [Compound 564] | 100 to 1000 | – | – | D (percent of modification <25%) | –
14 | C=CC(=O)N1CCn2nc(-c3nc(-c4ccc(C(=O)NCC(F)F)cc4)c4ccsc4c3-c3c(F)cc(F)cc3OCCOC)cc2C1C (stereo not drawn) [Compound 1183] | – | < 100 | – | – | A (percent of modification of PIK3CA protein ≥75%)
15 | C=CC(=O)N1Cc2cc(-c3nc(-c4ccc5c(c4)CCS5(=O)=O)c4ccsc4c3-c3c(F)cc(F)cc3OCCOC)nn2C[C@H]1C [Compound 794] | > 3000 | – | – | A (percent of modification of PIK3CA protein ≥75%) | –
16 | C=CC(=O)N1CCn2nc(-c3nc(-c4ccc5c(c4)CN(CC(F)(F)F)CC5)c4ccsc4c3-c3c(F)cc(F)cc3OCCO)cc2C1C (stereo not drawn) [Compound 1250] | – | < 100 | – | – | A (percent of modification of PIK3CA protein ≥75%)
17 | CC=C(C#N)C(=O)N1CCn2nc(-c3nc(-c4ccc5c(cnn5C)c4)c4ccsc4c3-c3c(F)cc(F)cc3OCCOC)cc2C1C (stereo not drawn) [Compound 1239] | – | > 1000 | – | – | C (25%≤percent of modification <50%)
18 | C=CC(=O)N1CCc2ncc(-c3nc(-c4cnc5c(c4)CN(C)CC5)c4ccsc4c3-c3c(F)cc(F)cc3OC(C)C)cc2C1 [Compound 327] | < 100 | – | – | A (percent of modification of PIK3CA protein ≥75%) | –

The next lines start with results.

Row | IC50 (pAKT in BT474 cells; Compounds 10-999) [nM] | IC50 (pAKT in BT474 cells; Compounds 1000-1279) [nM] | IC50 (pAKT in BT474 cells; Homo sapiens, BT-474, Compounds 10-999) [nM] | SMILES | % of modification [1, 2] | % of modification [1, 3]
19 | < 100 | – | – | C=CC(=O)N1CCc2nc(-c3nc(-c4cnc5c(c4)CNC(=O)C5)c4ccsc4c3-c3c(F)cc(F)cc3OC(C)C)sc2C1 (single isomer, unassigned) [Compound 588] | A (percent of modification of PIK3CA protein ≥75%) | –
20 | < 100 | – | – | C=CC(=O)N1CCn2nc(-c3nc(-c4ccc5cnn(C)c5c4)c4ccsc4c3-c3c(F)cc(F)cc3OCC(C)O)cc2C1C (stereo not drawn) [Compound 677] | A (percent of modification of PIK3CA protein ≥75%) | –
21 | < 100 | – | – | C=CC(=O)N1CCc2ccc(-c3nc(-c4ccc5c(c4)CCN(C)C5)c4ccsc4c3-c3ccc(F)cc3OCCOC)cc2C1 [Compound 83] | A (percent of modification of PIK3CA protein ≥75%) | –
22 | < 100 | – | – | C=CC(=O)N1CCn2nc(-c3nc(-c4ccc(N5CCN(C)CC5)nc4)c4ccsc4c3-c3c(F)cc(F)cc3OCCOC)cc2C1C (stereo not drawn) [Compound 930] | – | A (percent of modification of PIK3CA protein ≥75%)
23 | < 100 | – | – | C=CC(=O)N1CCn2nc(-c3nc(-c4ccc5c(c4)CCN(C(C)C)C5)c4ccsc4c3-c3ccc(F)cc3OCC3CCNC(=O)C3)cc2C1 (stereo not drawn) [Compound 254] | A (percent of modification of PIK3CA protein ≥75%) | –
24 | < 100 | – | – | C=CC(=O)N1Cc2cc(-c3nc(-c4cnc5c(c4)CN(C)C5=O)c4ccsc4c3-c3c(F)cc(F)cc3OCCOC)nn2C[C@H]1C [Compound 504] | A (percent of modification of PIK3CA protein ≥75%) | –
25 | < 100 | – | – | C=CC(=O)N1CCn2nc(-c3nc(-c4ccc5c(c4)CCN(C)C5)c4ccsc4c3-c3c(F)cc(F)cc3OC3CC3)cc2C1C (stereo not drawn) [Compound 549] | A (percent of modification of PIK3CA protein ≥75%) | –
26 | < 100 | – | – | C=CC(=O)N1CCn2nc(-c3nc(-c4ccc(=O)n(CC(F)F)c4)c4ccsc4c3-c3ccc(F)cc3OCCOC)cc2C1 [Compound 266] | A (percent of modification of PIK3CA protein ≥75%) | –
27 | < 100 | – | – | C=CC(=O)N1Cc2cc(-c3nc(-c4cnc5c(c4)CN(C)C5=O)c4ccsc4c3-c3c(F)cc(F)cc3OCCOC)nn2C[C@H]1C [Compound 687] | A (percent of modification of PIK3CA protein ≥75%) | –
28 | < 100 | – | – | C=CC(=O)N1CCn2nc(-c3nc(-c4cnc5c(c4)CN(C)C5=O)c4ccsc4c3-c3c(F)cc(F)cc3OCCO)cc2C1C (stereo not drawn) [Compound 924] | – | A (percent of modification of PIK3CA protein ≥75%)
29 | < 100 | – | – | C=CC(=O)N1CCc2ncc(-c3nc(-c4ccc5c(c4)CS(=O)(=O)C5)c4ccsc4c3-c3ccc(F)cc3OCCOC)cc2C1 [Compound 111] | A (percent of modification of PIK3CA protein ≥75%) | –
30 | < 100 | – | – | C=CC(=O)N1Cc2cc(-c3nc(-c4ccc5c(c4)CNC5=O)c4ccsc4c3-c3c(F)cc(F)cc3OC[C@@H](C)O)nn2C[C@H]1C [Compound 756] | A (percent of modification of PIK3CA protein ≥75%) | –
31 | < 100 | – | – | C=CC(=O)N1Cc2cc(-c3nc(-c4ccc5cnncc5c4)c4ccsc4c3-c3c(F)cc(F)cc3OCCO)nn2CC1C (stereo not drawn) [Compound 853] | – | A (percent of modification of PIK3CA protein ≥75%)
32 | < 100 | – | – | C=CC(=O)N1CCn2nc(-c3nc(-c4cnnc(C)c4)c4ccsc4c3-c3c(F)cc(F)cc3OC[C@@H](C)O)cc2[C@H]1C [Compound 751] | A (percent of modification of PIK3CA protein ≥75%) | –
33 | < 100 | – | – | C=CC(=O)N1Cc2cc(-c3nc(-c4ccc5c(c4)CNC5=O)c4ccsc4c3-c3c(F)cc(F)cc3OCCOC)nn2C[C@H]1C [Compound 691] | A (percent of modification of PIK3CA protein ≥75%) | –
34 | < 100 | – | – | C=CC(=O)N1CCn2nc(-c3nc(-c4cnn(C)c4)c4ccsc4c3-c3ccc(F)cc3OC(C)C)c(C)c2C1 [Compound 320] | A (percent of modification of PIK3CA protein ≥75%) | –
35 | < 100 | – | – | C=CC(=O)N1CCn2nc(-c3nc(-c4ccc5cnncc5c4)c4ccsc4c3-c3c(F)cc(F)cc3OCC(C)O)cc2C1C (stereo not drawn) [Compound 678] | A (percent of modification of PIK3CA protein ≥75%) | –
36 | < 100 | – | – | C=CC(=O)N1CCc2nc(-c3nc(-c4ccc5c(c4)CNC5)c4ccsc4c3-c3ccc(F)cc3OCCOC)sc2C1 [Compound 153] | A (percent of modification of PIK3CA protein ≥75%) | –
